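The compound was tested at five concentrations on cells cultured in 96-well plates, with a 48-hour exposure period. The concentration for 50% growth inhibition is given as GI50. TGI marks complete inhibition of growth.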
How the values were obtained:
Test in all cases: inhibition of tumour cell growth, NCI panel, 48 h
RPMI-8226 leukemia = tested on: RPMI-8226 leukemia
K-562 leukemia = tested on: K-562 leukemia
SN12C renal = tested on: SN12C renal
CAKI-1 renal = tested on: CAKI-1 renal
SK-MEL-2 melanoma = tested on: SK-MEL-2 melanoma
SNB-19 CNS = tested on: SNB-19 CNS
HOP-62 NSCLC = tested on: HOP-62 NSCLC
U251 CNS = tested on: U251 CNS
ACHN renal = tested on: ACHN renal
EKVX NSCLC = tested on: EKVX NSCLC
NCI-H23 lung = tested on: NCI-H23 lung
A549 NSCLC = tested on: A549 NSCLC
HT29 colon = tested on: HT29 colon
PC-3 prostate = tested on: PC-3 prostate
MALME-3M melanoma = tested on: MALME-3M melanoma
OVCAR-4 ovarian = tested on: OVCAR-4 ovarian
MDA-MB-435 = tested on: MDA-MB-435
MCF7 breast = tested on: MCF7 breast
UACC-62 melanoma = tested on: UACC-62 melanoma
OVCAR-3 ovarian = tested on: OVCAR-3 ovarian
CCRF-CEM leukemia = tested on: CCRF-CEM leukemia
SR leukemia = tested on: SR leukemia
SK-MEL-28 melanoma = tested on: SK-MEL-28 melanoma
T-47D breast = tested on: T-47D breast
MDA-MB-468 breast = tested on: MDA-MB-468 breast
UACC-257 melanoma = tested on: UACC-257 melanoma
786-0 renal = tested on: 786-0 renal
SK-OV-3 ovarian = tested on: SK-OV-3 ovarian
NCI-H522 lung = tested on: NCI-H522 lung
SK-MEL-5 melanoma = tested on: SK-MEL-5 melanoma
NCI-H460 lung = tested on: NCI-H460 lung
OVCAR-5 ovarian = tested on: OVCAR-5 ovarian
HCT-116 colon = tested on: HCT-116 colon
BT-549 breast = tested on: BT-549 breast
KM12 colon = tested on: KM12 colon
TK-10 renal = tested on: TK-10 renal
HL-60(TB) leukemia = tested on: HL-60(TB) leukemia
NCI/ADR-RES ovarian = tested on: NCI/ADR-RES ovarian
M14 melanoma = tested on: M14 melanoma
UO-31 renal = tested on: UO-31 renal
COLO 205 colon = tested on: COLO 205 colon
NCI-H226 lung = tested on: NCI-H226 lung
HOP-92 NSCLC = tested on: HOP-92 NSCLC
HCT-15 colon = tested on: HCT-15 colon
SF-295 CNS = tested on: SF-295 CNS
SF-539 CNS = tested on: SF-539 CNS
A498 renal = tested on: A498 renal
OVCAR-8 ovarian = tested on: OVCAR-8 ovarian
DU-145 prostate = tested on: DU-145 prostate
SNB-75 CNS = tested on: SNB-75 CNS
SF-268 CNS = tested on: SF-268 CNS
HCC-2998 colon = tested on: HCC-2998 colon
IGROV1 ovarian = tested on: IGROV1 ovarian
RXF 393 renal = tested on: RXF 393 renal
MOLT-4 leukemia = tested on: MOLT-4 leukemia

COc1ccc(-c2ccnc(SCc3cc4cc(OC)ccc4[nH]c3=O)n2)cc1
GI50 (RPMI-8226 leukemia): 5.05 µM | TGI (RPMI-8226 leukemia): > 100 µM | GI50 (K-562 leukemia): 2.55 µM | TGI (K-562 leukemia): > 100 µM | GI50 (SN12C renal): 7.41 µM | TGI (SN12C renal): > 100 µM | GI50 (CAKI-1 renal): 6.11 µM | TGI (CAKI-1 renal): > 100 µM | GI50 (SK-MEL-2 melanoma): 6.27 µM | TGI (SK-MEL-2 melanoma): > 100 µM | GI50 (SNB-19 CNS): 35.2 µM | TGI (SNB-19 CNS): > 100 µM | GI50 (HOP-62 NSCLC): 10.9 µM | TGI (HOP-62 NSCLC): 97.9 µM | GI50 (U251 CNS): 12.4 µM | TGI (U251 CNS): > 100 µM | GI50 (ACHN renal): 20.6 µM | TGI (ACHN renal): > 100 µM | GI50 (EKVX NSCLC): 4.16 µM | TGI (EKVX NSCLC): > 100 µM | GI50 (NCI-H23 lung): 19 µM | TGI (NCI-H23 lung): > 100 µM | GI50 (A549 NSCLC): 10.1 µM | TGI (A549 NSCLC): > 100 µM | GI50 (HT29 colon): 5.38 µM | TGI (HT29 colon): > 100 µM | GI50 (PC-3 prostate): 6.96 µM | TGI (PC-3 prostate): > 100 µM | GI50 (MALME-3M melanoma): 17 µM | TGI (MALME-3M melanoma): > 100 µM | GI50 (OVCAR-4 ovarian): 17.6 µM | TGI (OVCAR-4 ovarian): > 100 µM | GI50 (MDA-MB-435): 3.17 µM | TGI (MDA-MB-435): > 100 µM | GI50 (MCF7 breast): 4.65 µM | TGI (MCF7 breast): > 100 µM | GI50 (UACC-62 melanoma): 4.62 µM | TGI (UACC-62 melanoma): > 100 µM | GI50 (OVCAR-3 ovarian): 17.9 µM | TGI (OVCAR-3 ovarian): > 100 µM | GI50 (CCRF-CEM leukemia): 6.66 µM | TGI (CCRF-CEM leukemia): > 100 µM | GI50 (SR leukemia): 2.95 µM | TGI (SR leukemia): > 100 µM | GI50 (SK-MEL-28 melanoma): 14.1 µM | TGI (SK-MEL-28 melanoma): > 100 µM | GI50 (T-47D breast): 4.97 µM | TGI (T-47D breast): > 100 µM | GI50 (MDA-MB-468 breast): 2.09 µM | TGI (MDA-MB-468 breast): 6.16 µM | GI50 (UACC-257 melanoma): 74.5 µM | TGI (UACC-257 melanoma): > 100 µM | GI50 (786-0 renal): 26 µM | TGI (786-0 renal): > 100 µM | GI50 (SK-OV-3 ovarian): 56.3 µM | TGI (SK-OV-3 ovarian): > 100 µM | GI50 (NCI-H522 lung): 7.82 µM | TGI (NCI-H522 lung): > 100 µM | GI50 (SK-MEL-5 melanoma): 4.95 µM | TGI (SK-MEL-5 melanoma): 38 µM | GI50 (NCI-H460 lung): 7.41 µM | TGI (NCI-H460 lung): > 100 µM | GI50 (OVCAR-5 ovarian): 23.6 µM | TGI (OVCAR-5 ovarian): > 100 µM | GI50 (HCT-116 colon): 3.64 µM | TGI (HCT-116 colon): > 100 µM | GI50 (BT-549 breast): 3.4 µM | TGI (BT-549 breast): > 100 µM | GI50 (KM12 colon): 9.43 µM | TGI (KM12 colon): > 100 µM | GI50 (TK-10 renal): 26.1 µM | TGI (TK-10 renal): > 100 µM | GI50 (HL-60(TB) leukemia): 2.34 µM | TGI (HL-60(TB) leukemia): > 100 µM | GI50 (NCI/ADR-RES ovarian): 4.06 µM | TGI (NCI/ADR-RES ovarian): > 100 µM | GI50 (M14 melanoma): 7.31 µM | TGI (M14 melanoma): > 100 µM | GI50 (UO-31 renal): 8.94 µM | TGI (UO-31 renal): > 100 µM | GI50 (COLO 205 colon): 17.3 µM | TGI (COLO 205 colon): > 100 µM | GI50 (NCI-H226 lung): 8.14 µM | TGI (NCI-H226 lung): > 100 µM | GI50 (HOP-92 NSCLC): 7.95 µM | TGI (HOP-92 NSCLC): > 100 µM | GI50 (HCT-15 colon): 4.33 µM | TGI (HCT-15 colon): > 100 µM | GI50 (SF-295 CNS): 7.09 µM | TGI (SF-295 CNS): > 100 µM | GI50 (SF-539 CNS): 6.67 µM | TGI (SF-539 CNS): > 100 µM | GI50 (A498 renal): > 100 µM | TGI (A498 renal): > 100 µM | GI50 (OVCAR-8 ovarian): 22.8 µM | TGI (OVCAR-8 ovarian): > 100 µM | GI50 (DU-145 prostate): 34.9 µM | TGI (DU-145 prostate): > 100 µM | GI50 (SNB-75 CNS): 2.46 µM | TGI (SNB-75 CNS): 71.4 µM | GI50 (SF-268 CNS): 17.7 µM | TGI (SF-268 CNS): > 100 µM | GI50 (HCC-2998 colon): 31.4 µM | TGI (HCC-2998 colon): > 100 µM | GI50 (IGROV1 ovarian): 5.66 µM | TGI (IGROV1 ovarian): > 100 µM | GI50 (RXF 393 renal): 4.42 µM | TGI (RXF 393 renal): > 100 µM | GI50 (MOLT-4 leukemia): 3.26 µM | TGI (MOLT-4 leukemia): > 100 µM
